Results from patent US20210128566A1, “NOVEL FUNCTIONALIZED PURINE-2,6-DIONES AND THEIR USE IN MEDICINE” (THOMAS HELLEDAYS STIFTELSE FÖR MEDICINSK FORSKNING, priority 2017, published 2021).

Target: recombinant human NUDT5 (Homo sapiens, UniProt Q9UKK9)
Assay: NUDT5 inhibitor activity by malachite green reporter assay
Format: biochemical
Conditions: 6 nM NUDT5, 50 μM ADP-Ribose, 15 minutes at room temperature
Procedure, shortened: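 Coupled ADP-ribose hydrolysis in 10 mM Tris-acetate pH 8.0, 40 mM NaCl, 10 mM Mg acetate, 0.005% Tween-20, 1 mM DTT: 6 nM NUDT5, 50 μM ADP-Ribose, 10 U/ml alkaline phosphatase, 15 min at room temperature. Pi read by malachite green at 630 nm; compounds 100 μM–1.7 nM, 3-fold; IC50 by curve fit.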

IC50 (Table 4) [nM]	IC50 (Table 3) [nM]	SMILES
119		COc1cccc(-c2nnc(Cn3c(N4CCNCC4)nc4c3c(=O)n(C)c(=O)n4C)o2)c1 [Example 111, 7-{[5-(3-methoxyphenyl)-1,3,4-oxadiazol-2-yl]methyl}-1,3-dimethyl-8-(piperazin-1-yl)-2,3,6,7-tetrahydro-1H-purine-2,6-dione]
	30	Cn1c(=O)c2c(nc(N3CCC(N)C3)n2Cc2nnc(-c3ccc(Cl)c(Cl)c3)o2)n(C)c1=O (stereo not drawn) [Example 25, 8-(3-aminopyrrolidin-1-yl)-7-{[5-(3,4-dichlorophenyl)-1,3,4-oxadiazol-2-yl]methyl}-1,3-dimethyl-2,3,6,7-tetrahydro-1H-purine-2,6-dione]
51.6		Cn1c(=O)c2c(nc(N3CCNCC3)n2Cc2nnc(-c3ccc(C(F)(F)F)cc3)o2)n(C)c1=O [Example 121, 1,3-dimethyl-8-(piperazin-1-yl)-7-({5-[4-(trifluoromethyl)phenyl]-1,3,4-oxadiazol-2-yl}methyl)-2,3,6,7-tetrahydro-1H-purine-2,6-dione]
64.2		COc1cc(-c2nnc(Cn3c(N4CCNCC4)nc4c3c(=O)n(C)c(=O)n4C)o2)ccc1Cl [Example 117, 7-{[5-(4-chloro-3-methoxyphenyl)-1,3,4-oxadiazol-2-yl]methyl}-1,3-dimethyl-8-(piperazin-1-yl)-2,3,6,7-tetrahydro-1H-purine-2,6-dione]
	23.7	Cn1c(=O)c2c(nc(NCCO)n2Cc2nnc(-c3ccc(Cl)c(Cl)c3)o2)n(C)c1=O [Example 2, 7-{[5-(3,4-dichlorophenyl)-1,3,4-oxadiazol-2-yl]methyl}-8-[(2-hydroxyethyl)amino]-1,3-dimethyl-2,3,6,7-tetrahydro-1H-purine-2,6-dione]
491		COc1ccc(-c2cc(Cn3c(N4CCNCC4)nc4c3c(=O)n(C)c(=O)n4C)on2)cc1 [Example 78, 7-{[3-(4-methoxyphenyl)-1,2-oxazol-5-yl]methyl}-1,3-dimethyl-8-(piperazin-1-yl)-2,3,6,7-tetrahydro-1H-purine-2,6-dione]
	378	COc1nc2c(c(=O)n(C)c(=O)n2C)n1Cc1nnc(-c2cccc(C)c2)o1 [Example 52, 8-methoxy-1,3-dimethyl-7-{[5-(3-methylphenyl)-1,3,4-oxadiazol-2-yl]methyl}-2,3,6,7-tetrahydro-1H-purine-2,6-dione]
129		Cn1c(=O)c2c(nc(N3CCNCC3)n2Cc2nnc(-c3cccc(F)c3)o2)n(C)c1=O [Example 110, 7-{[5-(3-fluorophenyl)-1,3,4-oxadiazol-2-yl]methyl}-1,3-dimethyl-8-(piperazin-1-yl)-2,3,6,7-tetrahydro-1H-purine-2,6-dione]
255		Cn1c(=O)c2c(nc(N3CCNCC3)n2Cc2nnc(-c3ccc(C#N)cc3)o2)n(C)c1=O [Example 112]
	65.9	Cn1c(=O)c2c(nc(SC3CCCCC3)n2Cc2nnc(-c3ccc(Cl)c(Cl)c3)o2)n(C)c1=O [Example 7, 8-(cyclohexylsulfanyl)-7-{[5-(3,4-dichlorophenyl)-1,3,4-oxadiazol-2-yl]methyl}-1,3-dimethyl-2,3,6,7-tetrahydro-1H-purine-2,6-dione]
	> 1000	Cc1cccc(-c2nnc(Cn3c(N4CCN(C5CCCCC5)CC4)nc4c3c(=O)n(C)c(=O)n4C)o2)c1 [Example 59, 8-(4-cyclohexylpiperazin-1-yl)-1,3-dimethyl-7-{[5-(3-methylphenyl)-1,3,4-oxadiazol-2-yl]methyl}-2,3,6,7-tetrahydro-1H-purine-2,6-dione]
	246	CCCc1nc2c(c(=O)n(C)c(=O)n2C)n1Cc1nnc(-c2ccc(Cl)c(Cl)c2)o1 [Example 61, 7-{[5-(3,4-dichlorophenyl)-1,3,4-oxadiazol-2-yl]methyl}-1,3-dimethyl-8-propyl-2,3,6,7-tetrahydro-1H-purine-2,6-dione]
	69.4	Cc1cccc(-c2nnc(Cn3c(N(C)C)nc4c3c(=O)n(C)c(=O)n4C)o2)c1 [Example 48, 8-(dimethylamino)-1,3-dimethyl-7-{[5-(3-methylphenyl)-1,3,4-oxadiazol-2-yl]methyl}-2,3,6,7-tetrahydro-1H-purine-2,6-dione]
20.2		Cn1c(=O)c2c(nc(N3CCNC(=O)C3)n2Cc2nnc(-c3ccc(Cl)c(Cl)c3)o2)n(C)c1=O [Example 83, 7-{[5-(3,4-dichlorophenyl)-1,3,4-oxadiazol-2-yl]methyl}-1,3-dimethyl-8-(3-oxopiperazin-1-yl)-2,3,6,7-tetrahydro-1H-purine-2,6-dione]
205		COc1cc(-c2nnc(Cn3c(N4CCC(CO)CC4)nc4c3c(=O)n(C)c(=O)n4C)o2)ccc1C [Example 130, 8-[4-(hydroxymethyl)piperidin-1-yl]-7-{[5-(3-methoxy-4-methylphenyl)-1,3,4-oxadiazol-2-yl]methyl}-1,3-dimethyl-2,3,6,7-tetrahydro-1H-purine-2,6-dione]
140		Cn1c(=O)c2c(nc(N3CCNC(C(F)(F)F)C3)n2Cc2nnc(-c3ccc(Cl)c(Cl)c3)o2)n(C)c1=O (stereo not drawn) [Example 134, 7-{[5-(3,4-dichlorophenyl)-1,3,4-oxadiazol-2-yl]methyl}-1,3-dimethyl-8-[3-(trifluoromethyl)piperazin-1-yl]-2,3,6,7-tetrahydro-1H-purine-2,6-dione]
265		COc1cc(-c2nnc(Cn3c(N4CC[C@@H](N(C)C)C4)nc4c3c(=O)n(C)c(=O)n4C)o2)ccc1C [Example 139, 8-[(3R)-3-(dimethylamino)pyrrolidin-1-yl]-7-{[5-(3-methoxy-4-methylphenyl)-1,3,4-oxadiazol-2-yl]methyl}-1,3-dimethyl-2,3,6,7-tetrahydro-1H-purine-2,6-dione]
358		Cn1c(=O)c2c(nc(Cl)n2Cc2nnc(-c3ccc4cc[nH]c4c3)o2)n(C)c1=O [Example 101, 8-chloro-7-{[5-(1H-indol-6-yl)-1,3,4-oxadiazol-2-yl]methyl}-1,3-dimethyl-2,3,6,7-tetrahydro-1H-purine-2,6-dione]
	> 1000	Cn1c(=O)c2c(nc(Cc3ccccc3)n2Cc2nnc(-c3ccc(Cl)c(Cl)c3)o2)n(C)c1=O [Example 63, 8-benzyl-7-{[5-(3,4-dichlorophenyl)-1,3,4-oxadiazol-2-yl]methyl}-1,3-dimethyl-2,3,6,7-tetrahydro-1H-purine-2,6-dione]
	28.4	Cc1nc2c(c(=O)n(C)c(=O)n2C)n1Cc1nnc(-c2ccc(Cl)c(Cl)c2)o1 [Example 60, 7-{[5-(3,4-dichlorophenyl)-1,3,4-oxadiazol-2-yl]methyl}-1,3,8-trimethyl-2,3,6,7-tetrahydro-1H-purine-2,6-dione]
	> 1000	CCCCN1CCN(c2nc3c(c(=O)n(C)c(=O)n3C)n2Cc2nnc(-c3cccc(C)c3)o2)CC1 [Example 54, 8-(4-butylpiperazin-1-yl)-1,3-dimethyl-7-{[5-(3-methylphenyl)-1,3,4-oxadiazol-2-yl]methyl}-2,3,6,7-tetrahydro-1H-purine-2,6-dione]
306		COc1cc(-c2nnc(Cn3c(SCCNC(C)=O)nc4c3c(=O)n(C)c(=O)n4C)o2)ccc1C [Example 141, N-{2-[(7-{[5-(3-methoxy-4-methylphenyl)-1,3,4-oxadiazol-2-yl]methyl}-1,3-dimethyl-2,6-dioxo-2,3,6,7-tetrahydro-1H-purin-8-yl)sulfanyl]ethyl}acetamide]
3590		Cn1c(=O)c2c(nc(Cl)n2Cc2nnc(-c3ccccc3)o2)n(C)c1=O [Example 88, 8-chloro-1,3-dimethyl-7-[(5-phenyl-1,3,4-oxadiazol-2-yl)methyl]-2,3,6,7-tetrahydro-1H-purine-2,6-dione]
	24.2	Cn1c(=O)c2c(nc(N3CCCC(F)C3)n2Cc2nnc(-c3ccc(Cl)c(Cl)c3)o2)n(C)c1=O (stereo not drawn) [Example 41, 7-{[5-(3,4-dichlorophenyl)-1,3,4-oxadiazol-2-yl]methyl}-8-(3-fluoropiperidin-1-yl)-1,3-dimethyl-2,3,6,7-tetrahydro-1H-purine-2,6-dione]
378		COc1cc(-c2nnc(Cn3c(Cl)nc4c3c(=O)n(C)c(=O)n4C)o2)ccc1Cl [Example 98, 8-chloro-7-{[5-(4-chloro-3-methoxyphenyl)-1,3,4-oxadiazol-2-yl]methyl}-1,3-dimethyl-2,3,6,7-tetrahydro-1H-purine-2,6-dione]
	> 1000	Cc1cccc(-c2nnc(Cn3c(N4CCN(c5ccccc5)CC4)nc4c3c(=O)n(C)c(=O)n4C)o2)c1 [Example 58, 1,3-dimethyl-7-{[5-(3-methylphenyl)-1,3,4-oxadiazol-2-yl]methyl}-8-(4-phenylpiperazin-1-yl)-2,3,6,7-tetrahydro-1H-purine-2,6-dione]
	806	CCCCCCN1CCN(c2nc3c(c(=O)n(C)c(=O)n3C)n2Cc2nnc(-c3cccc(C)c3)o2)CC1 [Example 53, 8-(4-hexylpiperazin-1-yl)-1,3-dimethyl-7-{[5-(3-methylphenyl)-1,3,4-oxadiazol-2-yl]methyl}-2,3,6,7-tetrahydro-1H-purine-2,6-dione]
	19.3	Cn1c(=O)c2c(nc(N3CCCNCC3)n2Cc2nnc(-c3ccc(Cl)c(Cl)c3)o2)n(C)c1=O [Example 27, 8-(1,4-diazepan-1-yl)-7-{[5-(3,4-dichlorophenyl)-1,3,4-oxadiazol-2-yl]methyl}-1,3-dimethyl-2,3,6,7-tetrahydro-1H-purine-2,6-dione]
16.5		Cn1c(=O)c2c(nc(N)n2Cc2nnc(-c3ccc(Cl)c(Cl)c3)o2)n(C)c1=O [Example 87, 8-amino-7-{[5-(3,4-dichlorophenyl)-1,3,4-oxadiazol-2-yl]methyl}-1,3-dimethyl-2,3,6,7-tetrahydro-1H-purine-2,6-dione]
58.2		Cn1c(=O)c2c(nc(-n3ccnc3)n2Cc2nnc(-c3ccc(Cl)c(Cl)c3)o2)n(C)c1=O [Example 66, 7-{[5-(3,4-dichlorophenyl)-1,3,4-oxadiazol-2-yl]methyl}-8-(1H-imidazol-1-yl)-1,3-dimethyl-2,3,6,7-tetrahydro-1H-purine-2,6-dione]
